# Assay results taken from PMC7782793, “Hydroxamic acid-modified peptide microarrays for profiling isozyme-selective interactions and inhibition of histone deacetylases” (Nature Communications, 2021).
# Where “and” joins values, the source holds several entries; their conditions need not be identical. Identical values can stand only once. Marks after values point to notes of the source that are not given here. Non-standard residues stand in square brackets, D forms with d. Residues, ends and D or L forms follow the SMILES beside them. *: point of attachment. Asu = N[C@@H](CCCCCC(=O)O)C(=O)O; NHOH = ON*
# What was measured:
# Format in all cases: biochemical
# HDAC3/NCoR2 = target: T1, HDAC3/NCoR2 (Homo sapiens, UniProt O15379); assay: HDAC inhibition assay (fluorogenic, Ac-Leu-Gly-Lys(Ac)-AMC); conditions: for HDAC3 dose-response data (relative enzyme activity), Fig. 6 + S. Fig. 10: duplicate columns
# T1 construct: HDAC3/NCoR2 (full length, C-terminal His tag, NCoR2 N-terminal GST tag); purchased BPS Bioscience 50003
# T1 sequence (O15379 whole entry): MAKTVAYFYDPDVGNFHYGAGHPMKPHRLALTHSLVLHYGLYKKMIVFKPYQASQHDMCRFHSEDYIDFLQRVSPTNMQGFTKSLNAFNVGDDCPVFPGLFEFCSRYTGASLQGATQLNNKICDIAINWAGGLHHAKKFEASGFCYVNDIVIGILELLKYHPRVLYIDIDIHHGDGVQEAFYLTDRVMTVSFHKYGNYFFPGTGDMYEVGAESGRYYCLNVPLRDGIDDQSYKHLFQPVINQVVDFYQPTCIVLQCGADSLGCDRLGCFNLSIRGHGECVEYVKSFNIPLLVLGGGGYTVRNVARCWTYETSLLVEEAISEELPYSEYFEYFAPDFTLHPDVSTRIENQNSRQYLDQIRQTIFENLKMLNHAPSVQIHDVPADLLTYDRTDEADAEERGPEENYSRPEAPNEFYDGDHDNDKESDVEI
# T1 sequence (Q9Y618 389-480 partner limits assumed): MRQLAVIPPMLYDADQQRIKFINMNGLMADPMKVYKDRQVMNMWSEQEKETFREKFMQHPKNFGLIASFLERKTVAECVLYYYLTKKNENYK
# HDAC8 = target: T2, HDAC8 (Homo sapiens, UniProt Q9BY41); assay: HDAC inhibition assay (fluorogenic, Ac-Leu-Gly-Lys(Tfa)-AMC); conditions: for HDAC8 dose-response data (relative enzyme activity, replicate values), Fig. 6 + S. Fig. 10: two replicate columns per inhibitor; for HDAC8 dose-response data (relative enzyme activity), Fig. 6 + S. Fig. 10: duplicate columns
# T2 construct: HDAC8 (full length, C-terminal His tag, BPS Bioscience, cat. #: 50008); purchased BPS Bioscience 50008
# T2 sequence (Q9BY41 1-377): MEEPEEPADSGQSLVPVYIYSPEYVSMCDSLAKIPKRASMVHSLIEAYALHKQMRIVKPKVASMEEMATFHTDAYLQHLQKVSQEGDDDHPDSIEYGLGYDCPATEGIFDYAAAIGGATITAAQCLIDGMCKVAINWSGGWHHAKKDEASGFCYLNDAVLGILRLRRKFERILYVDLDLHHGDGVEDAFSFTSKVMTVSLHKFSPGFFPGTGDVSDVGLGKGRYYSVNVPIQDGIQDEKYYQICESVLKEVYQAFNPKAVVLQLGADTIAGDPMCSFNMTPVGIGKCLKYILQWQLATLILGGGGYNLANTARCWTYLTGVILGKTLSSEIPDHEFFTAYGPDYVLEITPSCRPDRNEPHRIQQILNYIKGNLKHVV
# HDAC6 = target: T3, HDAC6 (Homo sapiens, UniProt Q9UBN7); assay: HDAC inhibition assay (fluorogenic, Ac-Leu-Gly-Lys(Ac)-AMC); conditions: HDAC6, replicates
# T3 construct: HDAC6 (full length, BPS Bioscience, cat. #: 50056); purchased BPS Bioscience 50056
# T3 sequence (Q9UBN7 1-1215): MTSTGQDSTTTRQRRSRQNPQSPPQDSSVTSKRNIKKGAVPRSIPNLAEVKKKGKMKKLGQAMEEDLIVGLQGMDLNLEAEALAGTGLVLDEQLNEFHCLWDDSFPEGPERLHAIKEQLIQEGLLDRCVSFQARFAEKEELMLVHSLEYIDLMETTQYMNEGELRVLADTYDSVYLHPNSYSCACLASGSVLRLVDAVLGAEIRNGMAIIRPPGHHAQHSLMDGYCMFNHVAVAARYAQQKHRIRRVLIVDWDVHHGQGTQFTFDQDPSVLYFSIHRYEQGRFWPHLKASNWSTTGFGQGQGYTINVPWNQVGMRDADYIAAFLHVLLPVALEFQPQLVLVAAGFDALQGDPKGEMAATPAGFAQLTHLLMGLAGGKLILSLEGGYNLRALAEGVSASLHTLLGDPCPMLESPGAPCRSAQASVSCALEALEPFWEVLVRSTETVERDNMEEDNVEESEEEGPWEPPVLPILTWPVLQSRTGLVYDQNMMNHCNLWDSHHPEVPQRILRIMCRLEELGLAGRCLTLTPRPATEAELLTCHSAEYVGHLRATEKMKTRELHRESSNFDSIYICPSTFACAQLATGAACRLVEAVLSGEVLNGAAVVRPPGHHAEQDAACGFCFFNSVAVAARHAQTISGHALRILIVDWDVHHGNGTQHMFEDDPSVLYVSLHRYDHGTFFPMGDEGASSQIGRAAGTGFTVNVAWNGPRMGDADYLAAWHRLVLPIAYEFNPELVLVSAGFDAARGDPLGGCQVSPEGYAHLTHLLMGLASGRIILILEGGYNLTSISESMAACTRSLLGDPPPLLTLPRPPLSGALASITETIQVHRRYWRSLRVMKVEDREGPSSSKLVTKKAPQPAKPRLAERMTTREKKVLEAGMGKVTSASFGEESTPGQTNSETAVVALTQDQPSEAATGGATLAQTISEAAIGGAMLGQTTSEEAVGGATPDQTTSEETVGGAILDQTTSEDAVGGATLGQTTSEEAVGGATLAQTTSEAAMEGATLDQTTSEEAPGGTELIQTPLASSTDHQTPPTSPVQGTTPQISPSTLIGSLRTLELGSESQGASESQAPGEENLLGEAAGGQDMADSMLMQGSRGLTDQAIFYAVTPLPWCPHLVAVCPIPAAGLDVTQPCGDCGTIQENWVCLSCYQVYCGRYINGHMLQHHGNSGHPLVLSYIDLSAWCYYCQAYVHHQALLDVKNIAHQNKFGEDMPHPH
smiles,measurement,setting,value
CC[C@H](C)[C@H](NC(=O)[C@H](CCC(=O)O)NC(=O)[C@H](CCCNC(=N)N)NC(=O)[C@H](CO)NC(=O)[C@@H](NC(=O)[C@@H](NC(=O)[C@@H](NC(=O)[C@H](CO)NC(=O)[C@H](CCCNC(=N)N)NC(=O)[C@H](CCCCCC(=O)NO)NC(=O)[C@H](CC(N)=O)NC(=O)[C@H](Cc1ccc(O)cc1)NC(=O)[C@H](Cc1c[nH]cn1)NC(C)=O)[C@@H](C)O)[C@@H](C)CC)[C@@H](C)O)C(=O)N[C@@H](CCC(N)=O)C(=O)N[C@H](C(=O)N[C@@H](C)C(=O)N[C@@H](Cc1c[nH]c2ccccc12)C(N)=O)[C@@H](C)O [12a] (Ac-HYN[Asu](NHOH)RSTITSREIQTAW-NH2),"HDAC3 dose-response data (relative enzyme activity), Fig. 6 + S. Fig. 10",HDAC3/NCoR2; log[inhibitor(M)] -7.79588,73.2464 and 64.9902
same,"HDAC3 dose-response data (relative enzyme activity), Fig. 6 + S. Fig. 10",HDAC3/NCoR2; log[inhibitor(M)] -8.49485,93.6652 and 87.0389
same,"HDAC3 dose-response data (relative enzyme activity), Fig. 6 + S. Fig. 10",HDAC3/NCoR2; log[inhibitor(M)] -9.19382,96.2351 and 93.241
same,"HDAC3 dose-response data (relative enzyme activity), Fig. 6 + S. Fig. 10",HDAC3/NCoR2; log[inhibitor(M)] -9.89279,95.5729 and 96.0845
same,"HDAC3 dose-response data (relative enzyme activity), Fig. 6 + S. Fig. 10","HDAC3/NCoR2; log[inhibitor(M)] -10,5850266520292*, whole line marked with asterisks","103,997369* and 102,157851*"
same,selectivity for HDAC3 vs. HDACs 1 and 2,"HDAC3/NCoR2; resynthesized peptides, from Ki",~ 2 fold
same,Ki,HDAC8,672 ± 2 nM
same,"HDAC8 dose-response data (relative enzyme activity, replicate values), Fig. 6 + S. Fig. 10",HDAC8; Inhibitor conc [M] -8.49485 (log),96.596 and 95.5531
same,"HDAC8 dose-response data (relative enzyme activity, replicate values), Fig. 6 + S. Fig. 10",HDAC8; Inhibitor conc [M] -9.19382 (log),96.9206 and 97.7957
same,"HDAC8 dose-response data (relative enzyme activity, replicate values), Fig. 6 + S. Fig. 10",HDAC8; Inhibitor conc [M] given as -7.09691 (log),89.149 and 90.0695
same,"HDAC8 dose-response data (relative enzyme activity, replicate values), Fig. 6 + S. Fig. 10",HDAC8; Inhibitor conc [M] given as -7.79588 (log),96.5655 and 96.7922
same,"HDAC8 dose-response data (relative enzyme activity, replicate values), Fig. 6 + S. Fig. 10",HDAC8; Inhibitor conc [M] given as -9.89279 (log),97.4718 and 97.8478
same,"HDAC8 dose-response data (relative enzyme activity, replicate values), Fig. 6 + S. Fig. 10",HDAC8; Inhibitor conc [M] given as -10.585 (log),"100,321515* and 100,605272*"
same,"HDAC8 dose-response data (relative enzyme activity), Fig. 6 + S. Fig. 10",HDAC8; Inhibitor conc [M] -4.30103,4.131 and 3.99
same,"HDAC8 dose-response data (relative enzyme activity), Fig. 6 + S. Fig. 10",HDAC8; Inhibitor conc [M] -5,13.2204 and 13.7487
same,"HDAC8 dose-response data (relative enzyme activity), Fig. 6 + S. Fig. 10",HDAC8; Inhibitor conc [M] -5.69897,34.8849 and 37.2156
same,"HDAC8 dose-response data (relative enzyme activity), Fig. 6 + S. Fig. 10",HDAC8; Inhibitor conc [M] -6.39794,67.169 and 68.3219
same,residual enzymatic activity relative to control wells,HDAC6; log[inhibitor(M)] -4.30103,1.727 and 0.8308
same,residual enzymatic activity relative to control wells,HDAC6; log[inhibitor(M)] -5,2.004 and 3.233
same,residual enzymatic activity relative to control wells,HDAC6; log[inhibitor(M)] -5.69897,5.047 and 6.177
same,residual enzymatic activity relative to control wells,HDAC6; log[inhibitor(M)] -6.39794,15.6412 and 12.824
same,residual enzymatic activity relative to control wells,HDAC6; log[inhibitor(M)] -7.09691,40.6476 and 34.5345
same,residual enzymatic activity relative to control wells,HDAC6; log[inhibitor(M)] -7.79588,71.7467 and 73.0064
same,residual enzymatic activity relative to control wells,HDAC6; log[inhibitor(M)] -8.49485,80.6815 and 89.6415
same,residual enzymatic activity relative to control wells,HDAC6; log[inhibitor(M)] -9.19382,82.3274 and 88.4313
same,residual enzymatic activity relative to control wells,HDAC6; log[inhibitor(M)] -9.89279,83.6621 and 89.4789
same,residual enzymatic activity relative to control wells,HDAC6; log[inhibitor(M)] -10.585,102.86 and 101.255
